# Legend:
# [1] = patients, combined with metformin (Nauck et al.); cited from earlier work
# [2] = cited from earlier work
# [3] = following subcutaneous injection; cited from earlier work
# [4] = dissolution of liraglutide powder at different pHs; assay type: physicochemical
# Protocol: Investigating the dissolution of liraglutide powder at different pHs
# The appropriate amount of liraglutide powder was dissolved in the water for injection and the disodium hydrogen phosphate buffer at a different pH was added resulting in the dissolution shown in Table 1.
compound,measurement,setting,value
CCC1=C(C)CN(C(=O)NCCc2ccc(S(=O)(=O)NC(=O)N[C@H]3CC[C@H](C)CC3)cc2)C1=O [glimepiride],incidence of hypoglycemia,[1],17%
"Arg^34, Lys^26 (N^ε-(γ-Glu (N^α-hexadecanoyl))) GLP-1 (7-37) [liraglutide]",reduction of systolic blood pressure,"[2]; LEAD series clinical trials, patients",2.7-6.7 mmHg
same,patients who reported nausea,[2]; LEAD-2 and LEAD-3 clinical trials,< 10%
same,incidence of hypoglycemia,[1],less than 3%
same,plasma half-life,[3],13 h
same,Dissolution,[4]; 6 mg/ml liraglutide in water for injection,insoluble
same,Dissolution,"[4]; 6 mg/ml liraglutide, 10 mM disodium hydrogen phosphate buffer (pH 7.00)",insoluble
same,Dissolution,"[4]; 6 mg/ml liraglutide, 10 mM disodium hydrogen phosphate buffer (pH 7.50)",colorless
same,Dissolution,"[4]; 6 mg/ml liraglutide, 10 mM disodium hydrogen phosphate buffer (pH 8.00)",colorless
same,Dissolution,"[4]; 6 mg/ml liraglutide, 10 mM disodium hydrogen phosphate buffer (pH 8.15)",colorless
same,Dissolution,"[4]; 6 mg/ml liraglutide, 10 mM disodium hydrogen phosphate buffer (pH 8.50)",colorless
same,Dissolution,"[4]; 6 mg/ml liraglutide, 10 mM disodium hydrogen phosphate buffer (pH 9.00)",colorless
same,dissolution of liraglutide powder,[4]; acidic and neutral conditions,didn't dissolve
same,dissolution of liraglutide powder,[4]; alkaline conditions,readily dissolved
